Laboratory results reported in patent publication US4240957A, “Dipeptide derivatives and their production” (Shionogi & Co., Ltd., priority 1974, dated 1980).

Tests used:
Type in all cases: in vivo
DS male mice [1] = experiment: Anti-pentylenetetrazole activity; conditions: for Anti-pentylenetetrazol activity, ED50: given orally 60 minutes prior to pentylenetetrazol 125 mg/kg s.c., complete protection against mortality, observed two hours; for times more potent than diazepam in anti-pentylenetetrazol activity: relative to diazepam (Compound No. 5)
From the text: (1) Anti-pentylenetetrazole activity:
The convulsions were disregarded.

DS male mice [2] = experiment: Taming activity (inhibition of electroshock-induced fighting); conditions: for Taming activity ED50: administered 60 minutes prior, inhibition of fighting responses, 5 pairs of mice; for times more potent than diazepam in taming activity: relative to diazepam (Compound No. 5)
Protocol: This test was measured on DS male mice. […] These pairs of mice were selected in the morning and used for drug test in the afternoon. The test compound was administered to both mice of the pairs 60 minutes prior to the experiment. Results were obtained as the mean percentage of inhibition of fighting responses in a group of 5 pairs and shown by ED50 [Tedeschi, et al.: J. Pharmacol Exp. Thev., 125, 28-34 (1959)].

DS male mice [3] = experiment: Rotarod performance activity; conditions: fall from rod within less than 2 minutes; 10 mice per dose
Protocol: (3) Rotarod performance activity:
This test was measured on DS male mice. The mouse was put on a scraped rod of wood, 3 cm in diameter, turning at the rate of five rotations per minute. The mice that could remain on the rod for three or more minutes in successive trials were selected and placed in a group of 10 mice for each dose. If the mouse fell down from the rod within less than 2 minutes, the test compound was considered to be effective. Results were shown by ED50 [Dunham, et al.: J. Am. Pharm. Assoc., 46, 208 (1957)].

[4] = relative to chlordiazepoxide (Compound No. 4)

SMILES | Anti-pentylenetetrazol activity, ED50 (DS male mice [1]) [mg/kg] | times more potent than chlordiazepoxide in anti-pentylenetetrazol activity (DS male mice [1]; [4]) [times] | times more potent than chlordiazepoxide in taming activity (DS male mice [2]; [4]) [times] | times more potent than diazepam in anti-pentylenetetrazol activity (DS male mice [1]) [times] | Taming activity ED50 (DS male mice [2]) [mg/kg] | times more potent than diazepam in taming activity (DS male mice [2]) [times] | Rotarod performance ED50 (DS male mice [3]) [mg/kg]
CN(C(=O)CNC(=O)CN)c1ccc(Cl)cc1C(=O)c1ccccc1 [Compound No. 1, 2-benzoyl-4-chloro-N-methyl-N^α -glycyl-glycinanilide] | 1.0 | 2 to 3 | 2 to 3 |  |  |  | 
CN(C(=O)CNC(=O)CN)c1ccc(Cl)cc1C(=O)c1ccccc1Cl.O [Compound No. 2, 2-o-chlorobenzoyl-4-chloro-N-methyl-N^α -glycyl-glycinanilide hydrate] | 0.58 |  |  | 2 to 4 | 3.0 | 2 to 4 | 
CN(C(=O)CNC(=O)CN)c1ccc(Cl)cc1C(=O)c1ccccc1F.Cl [Compound No. 3, 2-o-fluorobenzoyl-4-chloro-N-methyl-N^α -glycyl-glycinanilide hydrochloride] | 0.33 |  |  | 2 to 4 | 1.6 | 2 to 4 | 17.0
